Series [1] concerns Erwinia amylovora. Briefly: In vitro infection tests on apple blossoms. As to conditions: for Infested blossoms: 14 blossoms. Here is the method: In these tests, streptomycin was used as a positive control.
The in vitro tests on apple blossoms represented the natural course of infection and were conducted as follows: blooming apple blossoms were cut and further cultivated standing in a sterile sugar solution in transparent plastic containers. […] Following another 35 hours of incubation, the blossoms were wet by spraying on water. The infection rate was determined after 8 to 10 days of incubation at 22° C. and 70% relative humidity.

Series [2] has as its system apple blossoms (Smoothy and Idared). Briefly: Phytotoxicity on apple blossoms and subsequent fruit development. Type of series: in vivo, Malus x domestica. As to conditions: for Browning reaction on petals: Smoothy and Idared; for Fruit russeting: all tested concentrations. Here is the method: (§1) . In this test, the respective concentrations were employed that had been proven as completely effective (no bacterial growth) in the in vitro suspension cultures. […]. […] The maximum final concentrations of the solvent ethanol in the treatment solutions were 5%; corresponding control treatments were conducted with 0.5 or 5% ethanol in water. For each variant (agent, concentration, variety), two of the larger branches were treated. The test were conducted in the experimental fruit plantation of the University of Agriculture in Jedlersdorf, Austria. The trees of each series were of identical age as well as developmental and observable physiological state. The treatments were conducted in the morning between 8:00 and 9:30 at a relative humidity of 68 to 75% and temperatures of 12 to 13° C. On all days of treatment, the sprayed blossoms were directly exposed to sunlight afterwards. Phytotoxic effects were evaluated on the days following treatment. During the following months, fruit set and development was observed and compared to that of the control plants. In the evaluation, attention was particularly focused on visible alterations of the fruit epidermis.

The subject of series [3] is Erwinia amylovora. Briefly: Bacteriostatic versus bactericidal effect: plating aliquots of suspension cultures onto agent-free solid medium. The format is cell-based. Conditions: for Colony formation of surviving cells after plating: already after 30 min. As for the experimental part:
This may be determined by means of plating aliquots of the suspension cultures containing the agent onto agent-free solid media. […] A culture blended with a corresponding volume of the solvent for juglone (ethanol) served as a control. […]. […] Aliquots of the suspension culture having an equivalent ethanol concentration were withdrawn and plated to serve as a control. After two days of incubating the plates at 25° C., the respective colony formation was documented.

The subject of series [4] is Erwinia amylovora. Nature of the series: Inoculation tests on pear fruits. The format is in vivo. The text has this: As opposed to the blossom system, this test has to be performed with lesions of the plant tissue. It is known that any results obtained with this system have a lower reproducibility and are harder to evaluate. The corresponding results are photographically documented in FIG. 3. Two different pear varieties were used.
The development of black necrotic lesions of the plant tissue and the formation of white bacterial slime (exsudate) were taken as criteria for evaluating the degree of infection.
Erwinia amylovora was inoculated into 5 ml KB medium and cultivated over night at 28° C. and 200 rpm. Upon reaching a cell density corresponding to OD600 (1:10 dilution)=0.17 to 0.20, 1 ml of the undiluted culture was centrifuged and the bacterial pellet was resuspended in PBS (phosphate buffered saline). Unripe pear fruits (July) obtained from the experimental plantation (Jedlersdorf, BOKU) were harvested, washed with water, dried and used for inoculation (EPPO protocol 2004). In the inoculation procedure, two holes each having a volume of about 10 μl were pierced into each fruit using a pipette tip. 10 μl of the test solution were pipetted into each of the hollows thus formed, followed by incubation of the fruits for 15 min. Upon absorption of the test solutions by the tissue, each lesion was inoculated with 10 μl of Erwinia amylovora, suspended in PBS. The direct inoculation of fruits that had not been treated with the agent before served as a positive control. In the negative control, sterile water was used instead of the agent solution. A 0.01 mM streptomycin solution was used as a positive control. The inoculated fruits were incubated for 3 to 7 days at 25° C. and 100% relative humidity.

The test system of a further series is bees. As to conditions: on contact or by ingestion.
Series [5] deals with pear blossoms (Williams Christ). Nature of the series: Phytotoxicity on pear blossoms and subsequent fruit development. The format is in vivo, Pyrus communis. Conditions: for Browning reaction on petals: Williams Christ; for Fruit russeting: all tested concentrations. Here is the method:
as §1

Series [6] concerns Erwinia amylovora. Nature of the series: Growth inhibition in in vitro suspension cultures (OD600 growth curves). Type of series: cell-based. Conditions: for Effect on growth of suspension culture: Example 2. As for the experimental part: Streptomycin as a conventional agent against Erwinia amylovora was used as a positive control (see FIGS. 1A to 1D).
The specific members of the three different classes of quinones were uniformly pre-dissolved in ethanol to give a 1 mM solution and subsequently diluted to the respective final concentrations in culture medium. Corresponding controls were conducted with equal volumes of ethanol in the absence of agent (FIG. 4, “KE”). Attention was particularly focused on a low concentration rage of less than 100 μM, in which unspecific and weak antibacterial effects are no longer of significance.
In the present experiments, the Austrian Erwinia amylovora standard strain 295/93 (AGES) was employed.
(§2) Erwinia amylovora was inoculated into 5 ml of KB medium and cultivated over night at 28° C. and 200 rpm. This culture was diluted with KB medium to OD600=0.3 and 2 ml thereof were further cultivated in sealed cuvettes in the presence of different agent concentrations immediately afterwards. […] Two controls were conducted: unchanged medium and medium with an ethanol concentration equal to that of the test preparations. The optical densities of the cultures OD600 were measured over time at predetermined intervals.

Another series deals with Erwinia carotovora. Briefly: Growth inhibition in suspension culture. Type of series: cell-based. Here is the method: Various other species of Erwinia are also important phytopathogens. The bacterium Erwinia carotovora was selected as an example of a further Erwinia species.
as §2

The mark [7] stands for this setting: concentration not given, curative.

The structures appear in SMILES notation.

`O=C1C=CC(=O)C=C1` [Benzoquinone, 1,4-benzoquinone]: the phyotoxic entry in the series on Erwinia amylovora [1] (0.01 mM, apple blossoms) is reported as “no”; with Erwinia amylovora [1] (0.05 mM, apple blossoms) it was “yes”. Also, the “Degree of efficacy (%)” value with Erwinia amylovora [1] (0.01 mM, curative) was 33%; in the series on Erwinia amylovora [1] (0.05 mM, curative) it was 42%. Besides, the “Infestation (%)” value with Erwinia amylovora [1] (0.01 mM, curative) came to 57%; in the series with Erwinia amylovora [1] (0.05 mM, curative) it was 50%. Further, the Infested blossoms in the series with Erwinia amylovora [1] (0.01 mM, curative) was 8; in the series with Erwinia amylovora [1] (0.05 mM, curative) it was 7.
`O=C1C=CC(=O)c2c(O)cccc21` [Juglone]: the “Degree of efficacy (%)” value in the series on Erwinia amylovora [1] (0.005 mM, curative) is recorded as 58%; in the series on Erwinia amylovora [1] (0.01 mM, curative), 67%. The “Infestation (%)” value with Erwinia amylovora [1] (0.005 mM, curative) came out at 36%; in the series on Erwinia amylovora [1] (0.01 mM, curative), 29%. In addition, the Infested blossoms in the series on Erwinia amylovora [1] (0.005 mM, curative) was 5; in the series with Erwinia amylovora [1] (0.01 mM, curative), 4. Further, the “Browning reaction on petals” value was “slightly brown spots” in series [2] (0.025 mM), “more distinct spots” in series [2] (0.05 mM) and “No effect” in series [5] (tested 0.005/0.01 mM). The Fruit russeting result in series [2] and in series [5] was “Neither the juglone nor the plumbagin treatments resulted in observable fruit russeting” each time. Also, the “Colony formation of surviving cells after plating” value with Erwinia amylovora [3] (0.01 mM in suspension culture) and in the series with Erwinia amylovora [3] (0.1 mM in suspension culture) was “no colony formation of surviving cells after each prolonged incubation time” throughout. Further, the Bactericidal effect result in the series on Erwinia amylovora [3] (conclusion of plating tests) is on record as “strong bactericidal effect”. The “Effect on infection of pear fruits” value in the series on Erwinia amylovora [4] (0.1 mM, pre-incubation 15 min before inoculation) is listed as “effect approximately comparable to that of 0.01 mM streptomycin”. For the same compound, the Toxicity to bees result in the series on bees was “non-toxic to bees on contact or by ingestion”. In addition, the “Effect on growth of suspension culture” value was “growth occurs after a prolonged incubation period” in the series with Erwinia amylovora [6] (5 μM); “completely bactericidal effect” with Erwinia amylovora [6] (10 μM (1.74 mg/1)); “distinct effect” in the series on Erwinia amylovora [6] (50 μM, 5% ethanol in medium). Further, the “Concentrations proven completely effective (no bacterial growth) in the in vitro suspension cultures” value with Erwinia amylovora [6] (suspension culture) lay in the range of 0.005 to 0.05 mM. Also, in the series on Erwinia amylovora [6] (suspension culture, compared with streptomycin), the “Activity against Erwinia amylovora (growth inhibition)” value is “activity corresponding to that of streptomycin in a sub-millimolar concentration range”. Further, the “Growth in suspension culture” value with Erwinia carotovora (0.1 mM) was “completely inhibited”; with Erwinia carotovora (concentrations lower than 0.1 mM) it was “not by lower concentrations”.
Take `CC1=CC(=O)c2c(O)cccc2C1=O` [Plumbagin, 5-hydroxy-2-methyl-1,4-naphthoquinone]: the “Degree of efficacy (%)” value is given as 58% with Erwinia amylovora [1] (0.1 mM, curative) and 50% in the series on Erwinia amylovora [1] (0.5 mM, curative). The “Infestation (%)” value with Erwinia amylovora [1] (0.1 mM, curative) came out at 36%; with Erwinia amylovora [1] (0.5 mM, curative), 43%. Besides, the Infested blossoms in the series on Erwinia amylovora [1] (0.1 mM, curative) was 5; with Erwinia amylovora [1] (0.5 mM, curative), 6. Further, the “Browning reaction on petals” value in series [2] (0.1 mM) is reported as “brown spots”; in series [2] (0.5 mM, compared with 0.1 mM), “more distinct”; in series [5] (0.1 mM), “brown spots”; in series [5] (0.5 mM, compared with 0.1 mM), “more distinct”. The Fruit russeting result in series [2] and in series [5] was “Neither the juglone nor the plumbagin treatments resulted in observable fruit russeting” throughout. In addition, the “Concentrations proven completely effective (no bacterial growth) in the in vitro suspension cultures” value in the series on Erwinia amylovora [6] (suspension culture) lay within 0.1 to 0.5 mM.
Consider `[H]/N=C(/N)N[C@H]1[C@H](O)[C@@H](O)[C@H](O[C@@H]2O[C@@H](C)[C@](O)(C=O)[C@H]2O[C@@H]2O[C@@H](CO)[C@H](O)[C@@H](O)[C@@H]2NC)[C@@H](N/C(N)=N\[H])[C@@H]1O` [Streptomycin, streptomycin], for which the Infested blossoms in the series with Erwinia amylovora [1] (concentration not given, agent applied 2.5 h after Erwinia amylovora (curative)) is recorded as 3. In addition, in the series on Erwinia amylovora [1] (setting [7]), the “Degree of efficacy (%)” value is 75% and the “Infestation (%)” value amounted to 21%. In the series with Erwinia amylovora [1] (in vivo), the phyotoxic result was “no”. Moreover, the Exsudate formation entry with Erwinia amylovora [4] (0.01 mM) is reported as “no exsudate formation”. For the same compound, the Necrotic lesions result in the series on Erwinia amylovora [4] (0.01 mM, Williams Christ and Bosc's Bottle Pear, versus inoculation without agent) is “slightly diminished”.
